From ChEMBL document CHEMBL3507680, “University of Dundee, Gates Library screen for HepG2 cell viability”

Assay: Human HepG2 cell viability assay in 384 well format
Assay type: toxicity, cell-based
Parameters: dose 125 nL, time 70.5 hour; concentration not given beside the values
Conditions: HepG2 cells, read-out: Inhibition

Compound	cytotoxicity at 70.5 h
Cc1ccc(CS(=O)(=O)Cc2nc(N)nc(N(C)C)n2)cc1	0.995%
COCCN1CCCC2(CCN(c3cccc(C(F)(F)F)n3)C2)C1=O (centres undefined)	-9.08%
O=C(c1cnccn1)N1CCc2c(COCC3CC3)cncc2C1	-7.37%
Cc1cnc(C)c(N2CCCC(CO)(Cc3ccccc3C)C2)n1 (centres undefined)	11.4%
CNS(=O)(=O)c1cccc(CNC(=O)c2c(C)nn(C)c2C)c1	-3.24%
CC(C)Oc1ncnc2c1CCN(Cc1cccs1)CC2	-6.72%
O=C1NC2(CCN(Cc3nccs3)CC2)CC1c1ccncc1 (centres undefined)	-0.916%
Cc1nsc(NC2CCOC3(CCCCC3)C2)n1 (centres undefined)	-8.47%
CSC(C)C(=O)NCCCc1cc(N)n(-c2ccccc2)n1 (centres undefined)	1.73%
O=C(NCCCc1nc(=O)[nH][nH]1)Nc1cccc(F)c1	-1.96%
Cc1ccc(C(=O)N2CC[C@@H]3[C@H]2CCC(=O)N3CCN(C)C)cn1	18.5%
CC(O)(CNC(=O)NCCc1ccc2c(c1)CCO2)c1ccsc1 (centres undefined)	1.66%
Cc1cc(N)nc(SC2CCN(c3ccccc3F)C2=O)n1 (centres undefined)	19%
CC(C)N1CCC2(CCCN(Cc3ccc(F)cc3)C2=O)C1 (centres undefined)	27.4%
CC(C)n1cc(C(=O)N2CCC(n3cc(C(C)(C)C)nn3)CC2)cn1	-12.1%
CC(NC(=O)N(C)Cc1ccncc1)c1cn(-c2ccccc2)nn1 (centres undefined)	4.1%
O=C(c1cc(-n2cnnn2)ccc1Cl)N1CCCCCC1	-2.04%
CS(=O)(=O)NC[C@]12COC[C@H]1CN(C(=O)CCc1ccccc1)C2	-2.39%
CCCc1nc(C(C)(C)NC(=O)C2CC(=O)N(CCOC)C2)no1 (centres undefined)	-10.7%
Cn1cc(CN2CCN(Cc3nccn3C)CC2)cn1	29.1%
CC(=O)Nc1cc(C(=O)N2CCOCC2c2ccc(C)o2)ccc1F (centres undefined)	-6.36%
COC(=O)N1CCN(Cc2csc(-c3ncccn3)n2)CC1	-5.37%

Compound	cytotoxicity at 70.5 h
COC(=O)C(C)NC(=O)CSCc1nc(O)c2cc(C(C)C)sc2n1 (centres undefined)	6.75%
O=C(Nc1ccccc1)[C@H]1C[C@@H]2CN(S(=O)(=O)c3ccccc3)C[C@H]1O2	-10.9%
Cc1cccc(N2CCN(C(=O)CCCC(=O)N(C)C)C(C)C2)n1 (centres undefined)	-18.7%
Cc1nc(C2CCCN(C(=O)c3ccc(S(C)(=O)=O)cc3)C2)no1 (centres undefined)	-6.59%
CCC(C)(C)N(C)CCOc1cccc(S(C)(=O)=O)c1	-3.09%
CC(C)Cc1noc(CN2CCCN(C(=O)c3cccc(Cl)c3)CC2)n1	23.3%
CCN1CCC(NC(=O)NC2CCOc3ccc(Br)cc32)CC1 (centres undefined)	-3.03%
COc1ccc(C(=O)N2CCC(Nc3cccnn3)CC2)cn1	13.7%
c1nc(N2CCCCC2Cn2cncn2)c2sccc2n1 (centres undefined)	-5.69%
Cc1cc(C)c2nc(CN[C@H]3CCCNC3)cc(O)c2c1	-2.89%
COc1ccc(C(C)NCc2c[nH]nc2C)cc1Br (centres undefined)	-6.07%
Cc1cc(NC(=O)N(C)CCN2CCN(c3ccccc3)CC2)on1	-2.89%
CC1CCCN(Cc2ccnc(-c3cccnc3)n2)C1 (centres undefined)	-13%
O=C(N1CCCC1)N1Cc2nccn2CC(COc2cccnc2)C1 (centres undefined)	-9.49%
CC(C)N1CCC(NCc2cccnc2N(C)Cc2ccccc2)CC1	-5.38%
Cc1nc2c(c(=O)n1C)CN(C(=O)C1CCCN(CC(N)=O)C1)C2 (centres undefined)	8.71%
O=C1CN(C(=O)c2cc3ccc(Br)cc3[nH]2)CCN1	-9.95%
CCc1cc(CN(C)C(=O)c2cnn[nH]2)on1	-9.04%
CS(=O)(=O)NC[C@@H]1OC[C@H]2CN(Cc3ccsc3)CC[C@H]21	18.6%
O=C(Cc1cccc(F)c1)NC1CCCc2cn[nH]c21 (centres undefined)	-11.9%
Cc1ccc(CNCC2CCN(CC(O)c3ccccc3)CC2)o1 (centres undefined)	-1.65%
Cc1cccc2[nH]c(C3CCN(C(=O)c4c[nH]c(=O)[nH]c4=O)CC3)nc12	-7.98%
